Consider three molecules from ChEMBL document CHEMBL1156733, “Structure-activity relationship studies on a series of piperazinebenzylalcohols and their ketone and amine analogs as melanocortin-4 receptor ligands” (Bioorg Med Chem Lett, 2008).

Data set [1] deals with T1, Melanocortin receptor 4 (Homo sapiens, UniProt P32245). As to the kind of experiment: Antagonist activity at human MC4 receptor expressed in cells assessed as inhibition of alpha-MSH-stimulated cAMP production. In kind it is functional, cell-based.
The target in data set [2] is Melanocortin receptor 5 (Homo sapiens, UniProt P33032). Kind of data set: Binding affinity to MC5 receptor.
Data set [3] in a line: Plasma clearance in rat at 5 mg/kg, iv. In kind it is ADME, organism-based. Also noted: dose 5 mg/kg, route intravenous.
The nature of data set [4]: Lipophilicity, log D of the compound. The class given is physicochemical. The conditions noted are these: octanol/water.
Data set [5] is described as follows: Oral bioavailability in rat at 10 mg/kg. In kind it is ADME, organism-based. The conditions noted are these: in vivo.
Data set [6] is described as follows: Metabolic stability assessed as intrinsic clearance in human liver microsomes. The class given is ADME, Microsome.
Data set [7] has as its target T1, Melanocortin receptor 4.
Description: Binding affinity to human MC4 receptor
Data set [8] concerns Brain. As to the kind of experiment: Drug level in rat brain rat at 5 mg/kg, iv. In kind it is ADME, organism-based. Also on record: dose 5 mg/kg, route intravenous. The conditions noted are these: in vivo.
Data set [9] can be described thus: Ratio of drug level in brain to plasma in rat at 5 mg/kg, iv after 1 hr. The class given is ADME, organism-based. Also noted: dose 5 mg/kg, route intravenous.
For data set [10], the target named is Melanocortin receptor 3 (Homo sapiens, UniProt P41968). As to the kind of experiment: Binding affinity to MC3 receptor.
A short description of data set [11]: Volume of distribution in rat at 5 mg/kg, iv. The class given is ADME, organism-based. Also on record: dose 5 mg/kg, route intravenous. To be noted: in vivo.
Data set [12] is described as follows: Half life in rat at 5 mg/kg, iv. The conditions noted are these: in vivo. In kind it is ADME, organism-based. Also on record: dose 5 mg/kg, route intravenous.
The nature of data set [13]: AUC in rat at 10 mg/kg, po. In kind it is ADME, organism-based. The conditions noted are these: plasma. Also on record: dose 10 mg/kg, route oral.
The test system of data set [14] is Melanocortin receptor 1 (Homo sapiens). As to the kind of experiment: Inhibition of human MC1 receptor at 10 uM.

Sequence of Melanocortin receptor 3 (P41968 whole entry): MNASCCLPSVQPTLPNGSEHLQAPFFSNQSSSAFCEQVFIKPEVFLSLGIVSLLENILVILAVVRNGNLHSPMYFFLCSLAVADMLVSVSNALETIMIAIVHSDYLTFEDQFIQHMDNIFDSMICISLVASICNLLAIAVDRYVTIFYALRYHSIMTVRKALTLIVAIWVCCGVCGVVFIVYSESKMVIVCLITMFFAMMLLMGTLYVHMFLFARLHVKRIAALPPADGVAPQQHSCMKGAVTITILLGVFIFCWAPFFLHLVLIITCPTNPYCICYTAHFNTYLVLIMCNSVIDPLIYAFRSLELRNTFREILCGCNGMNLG
T1 sequence (P32245 whole entry): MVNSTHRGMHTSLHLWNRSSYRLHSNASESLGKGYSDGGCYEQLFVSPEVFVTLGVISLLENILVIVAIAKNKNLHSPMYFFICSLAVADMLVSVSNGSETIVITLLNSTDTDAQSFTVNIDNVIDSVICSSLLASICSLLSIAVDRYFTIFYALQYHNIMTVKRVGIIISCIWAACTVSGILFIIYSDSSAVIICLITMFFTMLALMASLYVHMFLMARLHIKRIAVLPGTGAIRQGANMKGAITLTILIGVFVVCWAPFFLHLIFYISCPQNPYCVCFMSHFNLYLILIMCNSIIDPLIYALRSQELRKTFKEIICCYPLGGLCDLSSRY
Sequence of Melanocortin receptor 5 (P33032 whole entry): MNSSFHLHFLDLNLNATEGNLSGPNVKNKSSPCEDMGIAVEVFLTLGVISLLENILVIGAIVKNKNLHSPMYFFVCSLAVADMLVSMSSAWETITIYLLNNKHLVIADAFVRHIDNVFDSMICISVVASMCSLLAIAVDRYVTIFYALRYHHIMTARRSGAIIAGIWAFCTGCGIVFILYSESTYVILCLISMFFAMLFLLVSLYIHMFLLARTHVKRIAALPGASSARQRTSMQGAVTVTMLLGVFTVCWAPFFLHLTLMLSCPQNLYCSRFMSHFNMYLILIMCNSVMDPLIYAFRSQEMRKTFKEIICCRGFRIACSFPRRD

Regarding `CC(C)CC(N)c1ccccc1N1CCN(C(=O)[C@@H](Cc2ccc(Cl)cc2Cl)NC(=O)CCN)CC1` (some centres not stated), the IC50 in data set [1] is 250 nM. For the same molecule, the Ki in [2] was 540 nM; in data set [7], 3.2 nM; in data set [10], 870 nM. The molecule also returned a clearance in [3] of 68 mL/min/kg. Further, the logD in data set [4] is 0.15. Besides, the bioavailability in data set [5] came out at 2.1%. Moreover, the CLint scaled in [6] was 3.6 mL/min/kg. For the same molecule, the Drug uptake in [8] is 245 ng/g. The Kp at 1 h in data set [9] is 1.8. Besides, the Vd in data set [11] was 41.5 L/kg. In [12], this molecule gave a half-life of 426 min.
For `CC(C)CC(O)c1ccccc1N1CCN(C(=O)[C@@H](Cc2ccc(Cl)cc2Cl)NC(=O)CCN)CC1` (some centres not stated), the IC50 in data set [1] turned out to be 260 nM. The Ki in data set [2] was 970 nM; in [7], 8.1 nM; in [10], 1700 nM. The molecule also gave a clearance in data set [3] of 64.5 mL/min/kg. In data set [4], this molecule returned a logD of 2.2. In [13], the AUC worked out at 30 ng·h/mL. In data set [5], this molecule registered a bioavailability of 1.2%. Also, the CLint scaled in data set [6] turned out to be 14.7 mL/min/kg. Further, in [8], the Drug uptake stood at 117 ng/g. For the same molecule, in data set [9], the Kp at 1 h is 0.53. In data set [11], the Vd amounted to 42.3 L/kg. The half-life in data set [12] is 456 min.
`CC(C)CC(=O)c1ccccc1N1CCN(C(=O)[C@@H](Cc2ccc(Cl)cc2Cl)NC(=O)CCN)CC1`: the IC50 in data set [1] is 650 nM. The Ki in [2] was 330 nM; in [7], 24 nM; in [10], 2300 nM. The molecule further showed an inhibition in data set [14] of 42%. Moreover, the logD in [4] worked out at 2.4. The CLint scaled in data set [6] was determined as 18.4 mL/min/kg.
